Reference: a compilation of properties of binary mixtures (doi:10.1016/j.molliq.2014.08.031)

Assay: xn = mol fraction of the nth substance listed
Conditions: 101 kPa

`CCCC[n+]1ccn(C)c1.CS(=O)(=O)[O-]` + O gave a viscosity (343.15 K, x2 = 0.7015) of 6.27 mPa·s, an electrical conductivity (343.15 K, x2 = 0.704) of 2.68 S/m and a viscosity (343.15 K, x2 = 0.7495) of 4.95 mPa·s. It also gave an electrical conductivity (343.15 K, x2 = 0.785) of 4.03 S/m, an electrical conductivity (343.15 K, x2 = 0.796) of 4.19 S/m and a viscosity (343.15 K, x2 = 0.8016) of 3.73 mPa·s. It also gave an electrical conductivity (343.15 K, x2 = 0.861) of 7.01 S/m, a viscosity (343.15 K, x2 = 0.9004) of 1.902 mPa·s and a viscosity (343.15 K, x2 = 0.9254) of 1.45 mPa·s. The electrical conductivity (343.15 K, x2 = 0.929) was 9.33 S/m, the viscosity (343.15 K, x2 = 0.9503) was 1.05 mPa·s and the electrical conductivity (343.15 K, x2 = 0.951) was 9.42 S/m. It also gave an electrical conductivity (343.15 K, x2 = 0.968) of 8.73 S/m, a viscosity (343.15 K, x2 = 0.975) of 0.672 mPa·s and an electrical conductivity (344.15 K, x1 = 0.004) of 2.52 S/m. The electrical conductivity (344.15 K, x1 = 0.008) was 4.46 S/m, the electrical conductivity (344.15 K, x1 = 0.019) was 7.24 S/m and the electrical conductivity (344.15 K, x2 = 0.785) was 4.1 S/m. It also gave an electrical conductivity (344.15 K, x2 = 0.796) of 4.32 S/m, an electrical conductivity (344.15 K, x2 = 0.861) of 7.13 S/m and an electrical conductivity (344.15 K, x2 = 0.892) of 8.05 S/m. The electrical conductivity (344.15 K, x2 = 0.951) was 9.81 S/m, the electrical conductivity (345.15 K, x1 = 0.008) was 4.43 S/m and the electrical conductivity (345.15 K, x1 = 0.019) was 7.32 S/m. For the same molecule, the electrical conductivity (345.15 K, x2 = 0.704) was 2.81 S/m, the electrical conductivity (345.15 K, x2 = 0.861) was 7.27 S/m and the electrical conductivity (345.15 K, x2 = 0.892) was 8.29 S/m. For the same molecule, the electrical conductivity (345.15 K, x2 = 0.929) was 9.54 S/m, the electrical conductivity (346.15 K, x1 = 0.004) was 2.55 S/m and the electrical conductivity (346.15 K, x1 = 0.019) was 7.4 S/m. It also gave an electrical conductivity (346.15 K, x2 = 0.785) of 4.26 S/m, an electrical conductivity (346.15 K, x2 = 0.861) of 7.5 S/m and an electrical conductivity (346.15 K, x2 = 0.892) of 8.44 S/m. For the same molecule, the electrical conductivity (346.15 K, x2 = 0.929) was 9.69 S/m, the electrical conductivity (346.15 K, x2 = 0.968) was 9.3 S/m and the electrical conductivity (347.15 K, x1 = 0.004) was 2.58 S/m. For the same molecule, the electrical conductivity (347.15 K, x1 = 0.008) was 4.7 S/m, the electrical conductivity (347.15 K, x1 = 0.019) was 7.35 S/m and the electrical conductivity (347.15 K, x2 = 0.704) was 2.95 S/m. The electrical conductivity (347.15 K, x2 = 0.785) was 4.32 S/m, the electrical conductivity (347.15 K, x2 = 0.929) was 9.84 S/m and the electrical conductivity (347.15 K, x2 = 0.951) was 10.2 S/m. For the same molecule, the electrical conductivity (347.15 K, x2 = 0.968) was 9.4 S/m, the electrical conductivity (348.15 K, x1 = 0.008) was 4.66 S/m and the electrical conductivity (348.15 K, x1 = 0.019) was 7.57 S/m. For the same molecule, the electrical conductivity (348.15 K, x2 = 0.704) was 3.03 S/m, the electrical conductivity (348.15 K, x2 = 0.785) was 4.41 S/m and the electrical conductivity (348.15 K, x2 = 0.796) was 4.64 S/m. It also gave an electrical conductivity (348.15 K, x2 = 0.861) of 7.68 S/m, an electrical conductivity (348.15 K, x2 = 0.929) of 9.94 S/m and an electrical conductivity (348.15 K, x2 = 0.951) of 10.4 S/m. The electrical conductivity (348.15 K, x2 = 0.968) was 9.35 S/m, the electrical conductivity (349.15 K, x1 = 0.004) was 2.62 S/m and the electrical conductivity (349.15 K, x1 = 0.008) was 4.72 S/m. The electrical conductivity (349.15 K, x1 = 0.019) was 7.54 S/m, the electrical conductivity (349.15 K, x2 = 0.704) was 3.08 S/m and the electrical conductivity (349.15 K, x2 = 0.785) was 4.52 S/m. For the same molecule, the electrical conductivity (349.15 K, x2 = 0.892) was 8.91 S/m, the electrical conductivity (349.15 K, x2 = 0.929) was 10.1 S/m and the electrical conductivity (349.15 K, x2 = 0.968) was 9.59 S/m. It also gave an electrical conductivity (350.15 K, x1 = 0.004) of 2.67 S/m, an electrical conductivity (350.15 K, x1 = 0.008) of 4.85 S/m and an electrical conductivity (350.15 K, x2 = 0.704) of 3.16 S/m. For the same molecule, the electrical conductivity (350.15 K, x2 = 0.785) was 4.57 S/m, the electrical conductivity (350.15 K, x2 = 0.796) was 4.8 S/m and the electrical conductivity (350.15 K, x2 = 0.861) was 7.93 S/m. The electrical conductivity (350.15 K, x2 = 0.892) was 9.06 S/m, the electrical conductivity (350.15 K, x2 = 0.929) was 10.3 S/m and the electrical conductivity (350.15 K, x2 = 0.951) was 10.7 S/m. The electrical conductivity (350.15 K, x2 = 0.968) was 9.73 S/m, the electrical conductivity (351.15 K, x1 = 0.004) was 2.68 S/m and the electrical conductivity (351.15 K, x1 = 0.008) was 4.84 S/m. It also gave an electrical conductivity (351.15 K, x1 = 0.019) of 7.88 S/m, an electrical conductivity (351.15 K, x2 = 0.704) of 3.27 S/m and an electrical conductivity (351.15 K, x2 = 0.785) of 4.68 S/m. It also gave an electrical conductivity (351.15 K, x2 = 0.796) of 4.91 S/m, an electrical conductivity (351.15 K, x2 = 0.861) of 8.29 S/m and an electrical conductivity (351.15 K, x2 = 0.892) of 9.2 S/m. The electrical conductivity (351.15 K, x2 = 0.929) was 10.5 S/m, the electrical conductivity (351.15 K, x2 = 0.951) was 10.8 S/m and the electrical conductivity (351.15 K, x2 = 0.968) was 9.91 S/m. The electrical conductivity (352.15 K, x1 = 0.004) was 2.71 S/m, the electrical conductivity (352.15 K, x1 = 0.008) was 4.89 S/m and the electrical conductivity (352.15 K, x2 = 0.704) was 3.37 S/m. It also gave an electrical conductivity (352.15 K, x2 = 0.785) of 4.8 S/m, an electrical conductivity (352.15 K, x2 = 0.796) of 4.99 S/m and an electrical conductivity (352.15 K, x2 = 0.861) of 8.21 S/m. For the same molecule, the electrical conductivity (352.15 K, x2 = 0.892) was 9.33 S/m, the electrical conductivity (352.15 K, x2 = 0.929) was 10.6 S/m and the electrical conductivity (352.15 K, x2 = 0.968) was 9.86 S/m. It also gave an electrical conductivity (353.15 K, x1 = 0.008) of 4.92 S/m, an electrical conductivity (353.15 K, x1 = 0.019) of 8.06 S/m and an electrical conductivity (353.15 K, x2 = 0.892) of 9.44 S/m. It also gave an electrical conductivity (353.15 K, x2 = 0.929) of 10.7 S/m, an electrical conductivity (353.15 K, x2 = 0.968) of 10.1 S/m and an electrical conductivity (354.15 K, x1 = 0.004) of 2.79 S/m. It also gave an electrical conductivity (354.15 K, x1 = 0.008) of 4.98 S/m, an electrical conductivity (354.15 K, x1 = 0.019) of 8.03 S/m and an electrical conductivity (354.15 K, x2 = 0.704) of 3.55 S/m. The electrical conductivity (354.15 K, x2 = 0.785) was 4.98 S/m, the electrical conductivity (354.15 K, x2 = 0.796) was 5.01 S/m and the electrical conductivity (354.15 K, x2 = 0.892) was 9.6 S/m. The electrical conductivity (354.15 K, x2 = 0.929) was 10.8 S/m, the electrical conductivity (354.15 K, x2 = 0.951) was 11.1 S/m and the electrical conductivity (354.15 K, x2 = 0.968) was 10.2 S/m. The electrical conductivity (355.15 K, x1 = 0.008) was 5.04 S/m, the electrical conductivity (355.15 K, x1 = 0.019) was 8.25 S/m and the electrical conductivity (355.15 K, x2 = 0.785) was 5.05 S/m. It also gave an electrical conductivity (355.15 K, x2 = 0.796) of 5.26 S/m, an electrical conductivity (355.15 K, x2 = 0.861) of 8.55 S/m and an electrical conductivity (355.15 K, x2 = 0.892) of 9.73 S/m. The electrical conductivity (355.15 K, x2 = 0.929) was 11 S/m, the electrical conductivity (355.15 K, x2 = 0.951) was 11.1 S/m and the electrical conductivity (356.15 K, x1 = 0.008) was 5.09 S/m. It also gave an electrical conductivity (356.15 K, x1 = 0.019) of 8.34 S/m, an electrical conductivity (356.15 K, x2 = 0.704) of 3.73 S/m and an electrical conductivity (356.15 K, x2 = 0.785) of 5.15 S/m. The electrical conductivity (356.15 K, x2 = 0.796) was 5.34 S/m, the electrical conductivity (356.15 K, x2 = 0.861) was 8.43 S/m and the electrical conductivity (356.15 K, x2 = 0.892) was 9.89 S/m. It also gave an electrical conductivity (356.15 K, x2 = 0.929) of 11.1 S/m, an electrical conductivity (356.15 K, x2 = 0.951) of 11.2 S/m and an electrical conductivity (356.15 K, x2 = 0.968) of 10.4 S/m. The electrical conductivity (357.15 K, x1 = 0.008) was 5.13 S/m, the electrical conductivity (357.15 K, x1 = 0.019) was 8.43 S/m and the electrical conductivity (357.15 K, x2 = 0.704) was 3.83 S/m. The electrical conductivity (357.15 K, x2 = 0.785) was 5.23 S/m, the electrical conductivity (357.15 K, x2 = 0.796) was 5.41 S/m and the electrical conductivity (357.15 K, x2 = 0.861) was 8.6 S/m. The electrical conductivity (357.15 K, x2 = 0.892) was 10 S/m, the electrical conductivity (357.15 K, x2 = 0.968) was 10.6 S/m and the electrical conductivity (358.15 K, x1 = 0.004) was 2.9 S/m. It also gave an electrical conductivity (358.15 K, x1 = 0.008) of 5.18 S/m, an electrical conductivity (358.15 K, x1 = 0.019) of 8.47 S/m and an electrical conductivity (358.15 K, x2 = 0.704) of 3.88 S/m. The electrical conductivity (358.15 K, x2 = 0.785) was 5.22 S/m, the electrical conductivity (358.15 K, x2 = 0.796) was 5.47 S/m and the electrical conductivity (358.15 K, x2 = 0.861) was 8.73 S/m. It also gave an electrical conductivity (358.15 K, x2 = 0.929) of 11.3 S/m, an electrical conductivity (358.15 K, x2 = 0.951) of 11.5 S/m and an electrical conductivity (358.15 K, x2 = 0.968) of 10.6 S/m.
